Laboratory results reported in patent US20250163104A1, “MACROCYCLIC IMMUNOMODULATORS” (priority 2021, published 2025).
Where a SMILES comes first, the peptide text is derived from it. Bridges are numbered along the chain shown (N, C = ends). [ ]: non-standard residue; d: D form. The star is where a group is joined. ξ: configuration not given here. Phe(3-CF3) = N[C@@H](Cc1cccc(C(F)(F)F)c1)C(=O)O; Ala(morpholin-4-yl) = N[C@@H](CN1CCOCC1)C(=O)O; Phe(4-CONH2) = NC(=O)c1ccc(C[C@H](N)C(=O)O)cc1; Phe(4-COOH) = N[C@@H](Cc1ccc(C(=O)O)cc1)C(=O)O; Bip = N[C@@H](Cc1ccc(-c2ccccc2)cc1)C(=O)O; Phe(3-F) = N[C@@H](Cc1cccc(F)c1)C(=O)O; Phe(3-Me) = Cc1cccc(C[C@H](N)C(=O)O)c1; Val(3-OH) = CC(C)(O)[C@H](N)C(=O)O; 3Pal = N[C@@H](Cc1cccnc1)C(=O)O; 4Pal = N[C@@H](Cc1ccncc1)C(=O)O; Cha = N[C@@H](CC1CCCCC1)C(=O)O; Cit = NC(=O)NCCC[C@H](N)C(=O)O; Ile(3ξ) = CCC(C)[C@H](N)C(=O)O; Thr(3ξ) = CC(O)[C@H](N)C(=O)O; Ala(CN) = N#CC[C@H](N)C(=O)O; ξIle = CC[C@H](C)C(N)C(=O)O; Carboxymethyl = O=C(O)C*; Orn = NCCC[C@H](N)C(=O)O; Dab = NCC[C@H](N)C(=O)O; Dap = NC[C@H](N)C(=O)O; Ac3c = NC1(C(=O)O)CC1; ξPra = C#CCC(N)C(=O)O; CF3 = FC(F)(F)*

The compounds below were run against T1, human PD-1 / PD-L1-Ig binding on Jurkat cell line over-expressing human PD-1 (Jurkat-PD-1) (Homo sapiens, UniProt Q15116) (assay: Jurkat-PD-1 Cell Binding High-Content Screening Assay (CBA)). Conditions: Jurkat-PD-1 cells, PE-labeled PD-L1-Ig 20 nM final; read-out: Jurkat HPD1_PDL1 IC50.
T1 construct: expressed in transfected cells; host or cells: Jurkat
T1 sequence (Q15116 25-288): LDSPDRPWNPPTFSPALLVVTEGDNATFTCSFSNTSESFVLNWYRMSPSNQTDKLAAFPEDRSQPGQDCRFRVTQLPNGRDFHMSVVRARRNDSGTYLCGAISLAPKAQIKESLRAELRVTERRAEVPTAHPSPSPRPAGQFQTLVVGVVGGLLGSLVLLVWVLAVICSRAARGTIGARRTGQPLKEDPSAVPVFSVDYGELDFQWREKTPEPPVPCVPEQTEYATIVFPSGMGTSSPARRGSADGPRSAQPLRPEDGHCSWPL
Format: cell-based
How it was run: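 Compounds were preincubated with Jurkat-hPD-1 cells in DMEM plus 10% fetal calf serum for 2 h at 37° C. Phycoerythrin-labeled PD-L1-Ig (20 nM final) was then added for 1 hour. Cells were fixed in 4% paraformaldehyde with Hoechst 33342, and bound fluorescence was quantified by high-content imaging.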
CC(C)C[C@@H]1NC(=O)[C@H](Cc2c[nH]c3ccccc23)NC(=O)[C@H](CC(=O)O)NC(=O)[C@H](Cc2ccc(O)cc2)NC(=O)[C@H](Cc2ccccc2)NC(=O)CSC[C@@H](C(=O)N[C@@H](C)C(N)=O)NC(=O)[C@H](CO)NC(=O)[C@H](C(C)C)NC(=O)[C@H](CC(C)C)NC(=O)[C@H](CCN)NC(=O)[C@@H](C)NC(=O)[C@H](CCN)NC(=O)[C@H](C(C)C)NC(=O)[C@H](Cc2ccc(-c3ccccc3)cc2)NC1=O [Compound 1104] ({CH2CO}-FYDWL[Bip]V[Dab][dA][Dab]LVSCA-NH2; thioether N-14) gave an IC50 of 43.6 nM. Cc1cccc(C[C@@H]2NC(=O)[C@H](CC(=O)O)NC(=O)[C@H](Cc3ccc(OC(F)(F)F)cc3)NC(=O)[C@H](CCN)NC(=O)CSC[C@@H](C(=O)N[C@@H](CCN)C(N)=O)NC(=O)[C@H](CCC(=O)O)NC(=O)[C@H](C(C)(C)O)NC(=O)[C@H](CC3CCCCC3)NC(=O)[C@H](CCN)NC(=O)[C@@H](CC(C)C)NC(=O)[C@H](CCCN)NC(=O)[C@H](Cc3ccc(OCC(=O)O)cc3)NC(=O)[C@H](Cc3ccc(-c4ccccc4)cc3)NC(=O)[C@H](Cc3ccc(OCC(=O)O)cc3)NC2=O)c1 [Compound 2693] ({CH2CO}-[Dab]Y(CF3)D[Phe(3-Me)]Y(Carboxymethyl)[Bip]Y(Carboxymethyl)[Orn][dL][Dab][Cha][Val(3-OH)]EC[Dab]-NH2; thioether N-14) showed an IC50 of 42.4 nM. For CC(C)C[C@H]1NC(=O)[C@H](CCCN)NC(=O)[C@H](Cc2ccc(C(=O)O)cc2)NC(=O)[C@H](Cc2ccc(-c3ccccc3)cc2)NC(=O)[C@H](Cc2ccc(C(=O)O)cc2)NC(=O)[C@H](Cc2cccc(C(F)(F)F)c2)NC(=O)[C@H](CC(N)=O)NC(=O)[C@H](Cc2ccc(C(=O)O)cc2)NC(=O)[C@H](CN2CCOCC2)NC(=O)CSC[C@@H](C(=O)N[C@@H](CCN)C(N)=O)NC(=O)[C@H](CO)NC(=O)[C@H](C(C)(C)O)NC(=O)[C@H](CC2CCCCC2)NC(=O)[C@H](CCN)NC1=O [Example 2719] ({CH2CO}-[Ala(morpholin-4-yl)][Phe(4-COOH)]N[Phe(3-CF3)][Phe(4-COOH)][Bip][Phe(4-COOH)][Orn][dL][Dab][Cha][Val(3-OH)]SC[Dab]-NH2; thioether N-14), the IC50 was 43.9 nM. CC(C)C[C@H]1NC(=O)[C@H](CCCN)NC(=O)[C@H](C(C)C)NC(=O)[C@H](Cc2ccc(-c3ccccc3)cc2)NC(=O)[C@H](C(C)C)NC(=O)[C@H](Cc2c[nH]c3ccccc23)NC(=O)[C@H](CC(=O)O)NC(=O)[C@H](Cc2ccc(OCC(=O)O)cc2)NC(=O)[C@H](Cc2cnc[nH]2)NC(=O)CSC[C@@H](C(=O)N[C@@H](CC(N)=O)C(N)=O)NC(=O)[C@H](C(C)O)NC(=O)[C@H](C(C)C)NC(=O)[C@H](CC2CCCCC2)NC(=O)[C@H](CCN)NC1=O (stereo partly drawn) [Compound 2548] ({CH2CO}-HY(Carboxymethyl)DWV[Bip]V[Orn][dL][Dab][Cha]V[Thr(3ξ)]CN-NH2; thioether N-14) gave an IC50 of 5.9 nM. Cc1cccc(C[C@@H]2NC(=O)[C@H](CC(=O)O)NC(=O)[C@H](Cc3ccc(OCC(=O)O)cc3)NC(=O)[C@H]([C@@H](C)O)NC(=O)CSC[C@@H](C(=O)NC3(C(N)=O)CC3)NC(=O)[C@H](CO)NC(=O)[C@H](C(C)C)NC(=O)[C@H](CC3CCCCC3)NC(=O)[C@H](CCN)NC(=O)[C@@H](CC(C)C)NC(=O)[C@H](CCCN)NC(=O)[C@H](Cc3ccc(OCC(=O)O)cc3)NC(=O)[C@H](Cc3ccc(-c4ccccc4)cc3)NC(=O)[C@H](Cc3ccc(OCC(=O)O)cc3)NC2=O)c1 [Compound 2065] ({CH2CO}-TY(Carboxymethyl)D[Phe(3-Me)]Y(Carboxymethyl)[Bip]Y(Carboxymethyl)[Orn][dL][Dab][Cha]VSC[Ac3c]-NH2; thioether N-14) was tested, and the IC50 was 19.5 nM. For CC(C)C[C@@H]1NC(=O)[C@H](CCN)NC(=O)[C@@H](CC(C)C)NC(=O)[C@H](CCCCN)NC(=O)[C@H](CCCNC(N)=O)NC(=O)[C@H](Cc2ccc(-c3ccccc3)cc2)NC(=O)[C@H](C(C)C)NC(=O)[C@H](Cc2c[nH]c3ccccc23)NC(=O)[C@H](CC(=O)O)NC(=O)[C@H](Cc2ccc(O)cc2)NC(=O)[C@H](CC(N)=O)NC(=O)CSC[C@@H](C(=O)N[C@@H](C)C(N)=O)NC(=O)[C@H]([C@@H](C)O)NC(=O)[C@H](C(C)C)NC1=O [Compound 1019] ({CH2CO}-NYDWV[Bip][Cit]K[dL][Dab]LVTCA-NH2; thioether N-14), the IC50 was 20.6 nM. Work on CC(C)C[C@H]1NC(=O)[C@H](CCCN)NC(=O)[C@H](CCC(=O)O)NC(=O)[C@H](Cc2ccc(-c3ccccc3)cc2)NC(=O)[C@H](C(C)C)NC(=O)[C@H](Cc2c[nH]c3ccccc23)NC(=O)[C@H](CC(=O)O)NC(=O)[C@H](Cc2cccnc2)NC(=O)[C@H](Cc2ccccc2)NC(=O)CSC[C@@H](C(=O)N[C@@H](C)C(N)=O)NC(=O)[C@H]([C@@H](C)O)NC(=O)[C@H](C(C)C)NC(=O)[C@H](CC2CCCCC2)NC(=O)[C@H](CCN)NC1=O [Compound 2171] ({CH2CO}-F[3Pal]DWV[Bip]E[Orn][dL][Dab][Cha]VTCA-NH2; thioether N-14) yielded an IC50 of 19.1 nM. CC[C@H](C)C1NC(=O)[C@H](Cc2ccc(-c3ccccc3)cc2)NC(=O)[C@H](C(C)C)NC(=O)[C@H](Cc2c[nH]c3ccccc23)NC(=O)[C@H](CC(N)=O)NC(=O)[C@H](Cc2ccc(O)cc2)NC(=O)[C@H](CN)NC(=O)CSC[C@@H](C(=O)N[C@@H](C)C(N)=O)NC(=O)[C@H]([C@@H](C)O)NC(=O)[C@H](C(C)C)NC(=O)[C@H](CC(C)C)NC(=O)[C@H](CCN)NC(=O)[C@@H](CC(C)C)NC(=O)[C@H](CCN)NC1=O (stereo partly drawn) [Compound 1090] ({CH2CO}-[Dap]YNWV[Bip][ξIle][Dab][dL][Dab]LVTCA-NH2; thioether N-14) gave an IC50 of 28 nM. With CC(C)C[C@H]1NC(=O)[C@H](CCCN)NC(=O)[C@H](C(C)C)NC(=O)[C@H](Cc2ccc(-c3ccccc3)cc2)NC(=O)[C@H](C(C)C)NC(=O)[C@H](Cc2c[nH]c3ccccc23)NC(=O)[C@H](CC(=O)O)NC(=O)[C@H](Cc2ccc(OCC(=O)O)cc2)NC(=O)[C@H](Cc2ccc(OCC(=O)O)cc2)NC(=O)CSC[C@@H](C(=O)N[C@@H](C)C(N)=O)NC(=O)[C@H]([C@@H](C)O)NC(=O)[C@H](C(C)C)NC(=O)[C@H](Cc2cccc(F)c2)NC(=O)[C@H](CCN)NC1=O [Compound 1674] ({CH2CO}-Y(Carboxymethyl)Y(Carboxymethyl)DWV[Bip]V[Orn][dL][Dab][Phe(3-F)]VTCA-NH2; thioether N-14) the IC50 was 16.9 nM. C#CCC(NC(=O)[C@H](CCCCN)NC(=O)[C@@H]1CSCC(=O)N[C@@H](Cc2ccncc2)C(=O)N[C@@H](Cc2ccc(OCC(=O)O)cc2)C(=O)N[C@@H](CC(=O)O)C(=O)N[C@@H](Cc2c[nH]c3ccccc23)C(=O)N[C@@H](C(C)C)C(=O)N[C@@H](Cc2ccc(-c3ccccc3)cc2)C(=O)N[C@@H]([C@@H](C)CC)C(=O)N[C@@H](CCCN)C(=O)N[C@H](CC(C)C)C(=O)N[C@@H](CCN)C(=O)N[C@@H](CC(C)C)C(=O)N[C@@H](C(C)C)C(=O)N[C@@H]([C@@H](C)O)C(=O)N1)C(N)=O (stereo partly drawn) [Compound 1761] ({CH2CO}-[4Pal]Y(Carboxymethyl)DWV[Bip]I[Orn][dL][Dab]LVTCK[ξPra]-NH2; thioether N-14) was tested, and the IC50 was 13.9 nM. In the case of COc1ccc(C[C@@H]2NC(=O)[C@H](C(C)O)NC(=O)CSC[C@@H](C(=O)N[C@@H](CCN)C(N)=O)NC(=O)[C@H](Cc3c[nH]cn3)NC(=O)[C@H](C(C)(C)O)NC(=O)[C@H](CC3CCCCC3)NC(=O)[C@H](CCN)NC(=O)[C@@H](CC(C)C)NC(=O)[C@H](CCCN)NC(=O)[C@H](Cc3ccc(OCC(=O)O)cc3)NC(=O)[C@H](Cc3ccc(-c4ccccc4)cc3)NC(=O)[C@H](Cc3ccc(OCC(=O)O)cc3)NC(=O)[C@H](Cc3cccc(C)c3)NC(=O)[C@H](CC(=O)O)NC2=O)cc1 (stereo partly drawn) [Compound 2674] ({CH2CO}-[Thr(3ξ)]Y(Me)D[Phe(3-Me)]Y(Carboxymethyl)[Bip]Y(Carboxymethyl)[Orn][dL][Dab][Cha][Val(3-OH)]HC[Dab]-NH2; thioether N-14), the IC50 is reported as 6.2 nM. For Cc1cccc(C[C@@H]2NC(=O)[C@H](CC(=O)O)NC(=O)[C@H](Cc3ccc(OCC(=O)O)cc3)NC(=O)[C@H](CN)NC(=O)CSC[C@@H](C(N)=O)NC(=O)[C@H]([C@@H](C)O)NC(=O)[C@H](C(C)C)NC(=O)[C@H](CC3CCCCC3)NC(=O)[C@H](CCC(=O)O)NC(=O)[C@@H](CC(C)C)NC(=O)[C@H](CCCN)NC(=O)[C@H](Cc3ccc(OCC(=O)O)cc3)NC(=O)[C@H](Cc3ccc(-c4ccccc4)cc3)NC(=O)[C@H](Cc3ccc(OCC(=O)O)cc3)NC2=O)c1 [Compound 1775] ({CH2CO}-[Dap]Y(Carboxymethyl)D[Phe(3-Me)]Y(Carboxymethyl)[Bip]Y(Carboxymethyl)[Orn][dL]E[Cha]VTC-NH2; thioether N-14), the IC50 was 20.5 nM. Cc1cccc(C[C@@H]2NC(=O)[C@H](CC(=O)O)NC(=O)[C@H](Cc3ccc(OCC(=O)O)cc3)NC(=O)[C@H](Cc3ccncc3)NC(=O)CSC[C@@H](C(=O)N[C@@H](CCN)C(N)=O)NC(=O)[C@H](CO)NC(=O)[C@H](C(C)(C)O)NC(=O)[C@H](CC3CCCCC3)NC(=O)[C@H](CCN)NC(=O)[C@@H](CC(C)C)NC(=O)[C@H](CCCN)NC(=O)[C@H](Cc3ccc(O)cc3)NC(=O)[C@H](Cc3ccc(-c4ccccc4)cc3)NC(=O)[C@H](Cc3ccc(C(N)=O)cc3)NC2=O)c1 [Compound 2623] ({CH2CO}-[4Pal]Y(Carboxymethyl)D[Phe(3-Me)][Phe(4-CONH2)][Bip]Y[Orn][dL][Dab][Cha][Val(3-OH)]SC[Dab]-NH2; thioether N-14) was tested, and the IC50 was 4.6 nM.

Same assay, conditions: read-out: Jurkat HPD1_PDL1 IC50; Jurkat-PD-1 cells, PE-labeled PD-L1-Ig 20 nM final
Work on CCC(C)[C@@H]1NC(=O)[C@H](Cc2ccc(-c3ccccc3)cc2)NC(=O)[C@H](CC#N)NC(=O)[C@H](Cc2c[nH]c3ccccc23)NC(=O)[C@H](CC(=O)O)NC(=O)[C@H](Cc2ccc(OCC(=O)O)cc2)NC(=O)[C@H](C(C)O)NC(=O)CSC[C@@H](C(=O)N[C@@H](CC(N)=O)C(=O)O)NC(=O)[C@H](CO)NC(=O)[C@H](C(C)C)NC(=O)[C@H](CC(C)C)NC(=O)[C@H](CCN)NC(=O)[C@@H](CC(C)C)NC(=O)[C@H](CCCN)NC1=O (stereo partly drawn) [Compound 2579] ({CH2CO}-[Thr(3ξ)]Y(Carboxymethyl)DW[Ala(CN)][Bip][Ile(3ξ)][Orn][dL][Dab]LVSCN-OH; thioether N-14) yielded an IC50 of 153 nM.
